The values below come from PMC11689655, “High-throughput screening of dual-target inhibitors for SARS-CoV-2 main protease and papain-like protease from Chebulae Fructus: in silico prediction and experimental verification” (Frontiers in Microbiology, 2024).

In general, EC50 refers to the concentration giving half of the maximal effect. In general, Kd refers to a measure of binding affinity in units of concentration. The IC50 is the concentration that gives 50% inhibition. By inhibition is commonly meant the drop in the measured response relative to a control, in per cent.

Data set [1] is described as follows: Cytotoxicity by CCK8 assay. Particulars: African green monkey. Background: Tetrazolium assays rely on reduction of a dye to a coloured formazan, in cell work by metabolically active cells.
Another data set has as its system SARS-CoV-2 wild-type. Nature of the data set: Antiviral activity (CPE inhibition) in Vero E6 cells, wild-type. The format is cell-based. Particulars: read-out: EC50 against SARS-CoV-2 wild-type strain.
Data set [2] addresses T1, SARS-CoV-2 M^pro (Severe acute respiratory syndrome coronavirus 2, UniProt P0DTD1). The data set is described as follows: biochemical. Particulars: SPR, Biacore T200, CM5 chip, kinetics analysis. Type of data set: binding.
A short description of a further data set: in vitro. The settings on record: African green monkey.
In data set [3] the target is T2, SARS-CoV-2 PL^pro (Severe acute respiratory syndrome coronavirus 2, UniProt P0DTD1). The data set is described as follows: SPR assay, PL^pro. The format is binding. The settings on record: Biacore T200, CM5 chip, kinetics analysis. (SPR reads the build-up and loss of mass on a sensor chip optically.)
The target of data set [4] is T2, SARS-CoV-2 PL^pro. The data set is described as follows: FRET enzymatic inhibition assay, PL^pro. The format is biochemical.
Data set [5] concerns the target T1, SARS-CoV-2 M^pro. Nature of the data set: biochemical. The settings on record: FRET.
Where [6] appears, read: Severe acute respiratory syndrome coronavirus 2, Vero C1008, MOI = 0.01, 48 h.

Structures are written as SMILES. Read-outs that look alike come from different tables or passages of the source.

Take `O=C(OC[C@H]1O[C@@H](OC(=O)c2cc(O)c(O)c(O)c2)[C@H](OC(=O)c2cc(O)c(O)c(O)c2)[C@@H](OC(=O)c2cc(O)c(O)c(O)c2)[C@@H]1OC(=O)c1cc(O)c(O)c(O)c1)c1cc(O)c(O)c(O)c1` [PGG, 1,2,3,4,6-penta-O-galloyl-β-D-glucose]: the CC50 in data set [1] is > 100 µM. The 50% effective concentration (EC50) in the data set with SARS-CoV-2 wild-type (setting [6]) is 8.22 µM.
Consider `O=C(OC[C@H]1O[C@@H](OC(=O)c2cc(O)c(O)c(O)c2)[C@H](OC(=O)c2cc(O)c(O)c(O)c2)[C@@H](OC(=O)c2cc(O)c(O)c(O)c2)[C@@H]1O)c1cc(O)c(O)c(O)c1` [TGG, 1,2,3,6-tetra-O-galloyl-β-D-glucose], for which the results for the dissociation constant Kd at SARS-CoV-2 M^pro [2] and at SARS-CoV-2 PL^pro [3] were 0.768 µM and 0.776 µM, respectively. Moreover, in the data set “in vitro”, the CC50 is > 100 µM. In addition, the IC50 on SARS-CoV-2 PL^pro [4] (1.0 μM PL^pro, 10 μM substrate, mean ± SD, n = 3, read-out: IC50 against PL^pro) worked out at 27.4 ± 2.43 µM; on SARS-CoV-2 M^pro [5] (0.2 μM M^pro, 20 μM substrate, mean ± SD, n = 3, read-out: IC50 against M^pro), 1.33 ± 0.47 µM. Moreover, the inhibition at 40 µM at SARS-CoV-2 PL^pro [4] (compound 40 μM, read-out: inhibition effect on PL^pro) was > 60%; at SARS-CoV-2 M^pro [5] (compound 40 μM, read-out: inhibition effect on M^pro) it was > 60%. In addition, the EC50 with SARS-CoV-2 wild-type (setting [6]) stood at 13 µM.
In the case of `Cn1cnc(Cn2c(=O)[nH]/c(=N\c3cc4cn(C)nc4cc3Cl)n(Cc3cc(F)c(F)cc3F)c2=O)n1` [S-217622, reference compound], in the data set on SARS-CoV-2 wild-type (MOI = 0.01, 48 h), the EC50 worked out at 0.05 µM.
